A short description of series [1]: Lipophilicity, log D of compound. Type of series: physicochemical. The conditions noted are these: octanol/water.
Series [2] can be described thus: Efflux ratio in human Caco2 cells. The format is ADME, cell-based. Conditions: Caco-2.

Each structure is given as a SMILES string.

`C=CC(=O)N1CCN2c3c(cnc4cc(-c5c(O)cccc5F)c(Cl)cc34)NC(=O)[C@H]2C1` displayed a logD in series [1] of 3.

As to `C=CC(=O)N1CCN2c3c(cnc4cc(-c5c(O)cccc5F)c(Cl)cc34)N(C)C(=O)[C@H]2C1`, in series [1], the logD was found to be 3. Further, in series [2], the efflux ratio was determined as 0.9.
